# Laboratory results published in patent US20030105082A1, “Methods for improving the therapeutic response of humans having major depression and carrying the gene for apolipoprotein E4” (priority 2001, published 2003).
# Tests used:
# [1] = 8-week comparison of paroxetine and mirtazapine: plasma drug concentrations by apoE genotype
# Experimental: (§1) A multi-center, randomized, double-blind, 8-week comparison of paroxetine and mirtazapine was performed for 246 nondemented, cognitively intact patients 65 years of age and older with major depression. All patients were genotyped at the apoE locus as discussed further below.
# (§2) After an initial evaluation period, the mirtazapine patients started with a 15 mg dose per day. After two weeks of treatment (Day 14), patients' dosages were raised to 30 mg per day. […] Subjects who rate “Much Improved” or “Very Much Improved” on the CGI Scale I continued on the same dose they were receiving during the previous week.
# (§3) For paroxetine, the dosing system was the same, except that the starting dosage was 20 mg per day, raised to 30 mg per day, and to a maximum of 40 mg per day.
# (§4) To screen patients for the gene, genomic DNA was extracted from EDTA-treated whole blood using the Puregene DNA extraction kit (available from Gentra Systems). ApoE genotypes were determined using restriction isotyping (restriction enzyme isoform genotyping) according to the protocol of Hixson and Vernier (J. Lipid Res. 31:545-548,1990), as set forth in Murphy, G.E. et al., Am. J. Psychiatr. 154:603-608, 1997. Genotypes were determined by two observers blind as to the clinical or neuropathological diagnosis.
# [2] = 8-week comparison of paroxetine and mirtazapine: discontinuation due to adverse events by apoE genotype
# Experimental: as §1, §2, §3, §4
# [3] = test system: patients 65 years of age and older with major depression; assay: 8-week double-blind comparison of paroxetine and mirtazapine: Clinical Global Impression Scale (CGI); type: in vivo, human; settings: day 14; for CGI scores, ε4 carriers compared with noncarriers: mirtazapine p=0.028; for CGI scores, ε4 carriers compared with those without ε4: treatment x genotype interaction p=0.029
# From the text: Clinical Global Impression Scale (CGI) (Guy, W., ECDEU Assessment Manual for Psychopharmacology, DHEW Publication No. (ADM) 76-338, rev. 1976). The CGI scale is a global 7-point rating of the severity of the illness taking into account the preceding week (CGI-Severity) and a global 7-point rating of the clinical status of the subject since baseline (CGI-Change). A responder is defined as being “Much Improved” or “Very Much Improved”— having a CGI score of […] 2 according to CGI-Change. Thus, a higher CGI-Severity score corresponds to more severe depression whereas a higher CGI-Change score corresponds to lessened depression, or an improvement in alleviating the symptoms of depression.
# (§5) All statistical analyses were performed using the SAS software package (available from SAS Institute). For clinical measures of depression (HDRS-21, HDRS-17, GDS, and CGI), analyses of covariance were performed with baseline values as the covariate, and apoE genotype ([…]4 allele carrier vs. non-carrier) and medication (mirtazapine, paroxetine) as the predictors. For remitter and responder analyses of clinical measures of depression, Cochran-Mantel-Haenszel statistics were used. For comparison of medication and genotype groups on baseline demographic measures, two-way analyses of variance were used.
# [4] = test system: patients 65 years of age and older with major depression; assay: 8-week double-blind comparison of paroxetine and mirtazapine: Geriatric Depression Scale (GDS); type: in vivo, human; settings: for GDS scores, ε4 carriers compared with noncarriers / GDS scores, ε4 carriers compared with those without ε4 / 50% reduction in GDS score (GDS 50% responders), ε4 carriers compared with those without ε4: day 14; for GDS scores, ε4 carriers compared with noncarriers: mirtazapine p=0.025; for GDS scores, ε4 carriers compared with those without ε4 / 50% reduction in GDS score (GDS 50% responders), ε4 carriers compared with those without ε4 / 50% reduction in GDS score, ε4 carriers compared with noncarriers: full cohort; for GDS scores, ε4 carriers compared with those without ε4: mirtazapine p=0.021; for 50% reduction in GDS score (GDS 50% responders), ε4 carriers compared with those without ε4: mirtazapine p=0.046; for 50% reduction in GDS score, ε4 carriers compared with noncarriers: mirtazapine p<0.005
# Experimental: Geriatric Depression Scale (GDS) (Yesavage, J.A. et al., J. Psychiatr. Res. 17:37-49, 1983), a self-rating scale developed specifically for rating depression in the elderly. In the GDS, a lower rating signifies less depression. GDS 50% responders are defined as subjects with a decrease on a post-baseline assessment of at least 50% as compared to baseline.
# as §5
# [5] = test system: patients 65 years of age and older with major depression; assay: 8-week double-blind comparison of paroxetine and mirtazapine: Mini Mental State Examination (MMSE), cognition; type: in vivo, human; settings: for mean MMSE score, ε4 carriers compared with noncarriers: week 8, full cohort, paroxetine p=0.018
# Experimental: as §1, §2, §3
# Mini Mental State Examination (MMSE) (Folstein, M.F. et al., J. Psychiatr. Res. 12:189-198, 1975). This test represents a brief standardized method to grade cognitive mental status. The test assesses orientation, attention, immediate and short-term recall, language, and the ability to follow verbal and written commands. The lower the score, the lower the cognitive mental status.
# as §5
# [6] = test system: patients 65 years of age and older with major depression; assay: 8-week double-blind comparison of paroxetine and mirtazapine: Hamilton Depression Rating Scale (HDRS-17, HDRS-21); type: in vivo, human; settings: for HDRS-21 scores, ε4 carriers compared with those without ε4: treatment x genotype interaction p=0.033; for HDRS-17 scores, ε4 carriers compared with those without ε4: treatment x genotype interaction p=0.036; for antidepressant response / onset of action, mirtazapine vs paroxetine / early antidepressant response, ε4 carriers compared with non-ε4 carriers: early weeks of treatment, summary of the example
# From the text: Hamilton Depression Rating Scale (HDRS; 17 and 21 item versions of a structured interview) (Hamilton, M., J. Neurol. Neurosurg. Psychiatr. 23:56-62, 1960; Hamilton, M., Br. J. Soc. Clin. Psychol. 6:278-296,1967). […] In other words, a lower rating in the HDRS scale signifies less depression. In contrast, HDRS remitters, which are those patients showing the least depression, are defined as subjects who have an HDRS-17 score of less than 7 at a post-baseline visit.
# as §5
# [7] = day 14, Caucasian patients, p=0.006
# [8] = day 14, patients carrying an apoE ε4 allele
# [9] = day 14, patients with an apoE ε4 allele, remitter = HDRS-17 score less than 7
# [10] = day 14, patients without an apoE ε4 allele
Compound,"number of patients who discontinued due to adverse events, ε4 carriers vs noncarriers ([2]; full cohort)","CGI scores, ε4 carriers compared with noncarriers ([3]; Caucasian patients)","CGI scores, ε4 carriers compared with those without ε4 ([3]; full cohort)","GDS scores, ε4 carriers compared with noncarriers ([4]; Caucasian patients)","GDS scores, ε4 carriers compared with those without ε4 [4]","50% reduction in GDS score (GDS 50% responders), ε4 carriers compared with those without ε4 [4]","50% reduction in GDS score, ε4 carriers compared with noncarriers ([4]; day 28)","mean MMSE score, ε4 carriers compared with noncarriers [5]","HDRS scores, ε4 carriers compared with noncarriers ([6]; day 14, Caucasian patients)","HDRS-21 scores, ε4 carriers compared with those without ε4 ([6]; day 14, full cohort)","HDRS-17 scores, ε4 carriers compared with those without ε4 ([6]; day 14, full cohort)","HDRS-21 50% responders [6, 8]","HDRS-17 remitters [6, 9]","HDRS-21 50% responders [6, 10] [%]","antidepressant response / onset of action, mirtazapine vs paroxetine [6]","early antidepressant response, ε4 carriers compared with non-ε4 carriers [6]",also measured
"CN1CCN2c3ncccc3Cc3ccccc3C2C1 (stereo not shown) [mirtazapine, 1,2,3,4,10,14b-hexahydro-2-methylpyrazino [2,1a]pyrido[2,3-c]benzazepine]",no significant differences,significantly better,significantly lower scores,significantly lower,large decrease in GDS scores,significantly more likely,significantly more,no effect,greater improvement,significantly lower scores,significantly lower scores,48%,28%,29.4,higher rate of antidepressant response,significantly stronger,"plasma drug concentrations, ε4 carriers vs non-ε4 carriers ([1]; in vivo): no differences; number of patients who discontinued due to adverse events, ε4 carriers vs noncarriers ([2]; in vivo): no significant differences; CGI scores, mirtazapine vs paroxetine treated subjects ([3]; Caucasian patients, p=0.037): significantly better; improvement in CGI scores, mirtazapine-treated vs paroxetine-treated patients ([3]; full cohort): Significantly greater improvement; patients showing a 50% reduction in GDS score ([4]; day 28, Caucasian patients, noncarriers): 16.9%; patients showing a 50% reduction in GDS score ([4]; day 28, Caucasian patients, ε4 carriers): 41.7%; improvement in HDRS-17 scores, mirtazapine-treated vs paroxetine-treated patients ([6]; day 7, full cohort): significantly greater improvement; mean HDRS-17 scores, mirtazapine vs paroxetine [6, 7]: significantly lower; mean HDRS-21 scores, mirtazapine vs paroxetine [6, 7]: significantly lower; percentage of ε4 carriers responding to medication treatment, mirtazapine vs paroxetine ([6]; day 14, Caucasian subjects, each of 50% reduction in HDRS-17, HDRS-21, HDRS-17 remission, 50% reduction in GDS): greater; improvement in HDRS-17 scores, mirtazapine-treated vs paroxetine-treated patients ([6]; day 14, full cohort): Significantly greater improvement; improvement in HDRS-21 scores, mirtazapine-treated vs paroxetine-treated patients ([6]; day 14, full cohort): Significantly greater improvement; HDRS-17 50% responders, ε4 carriers compared with those without ε4 ([6]; day 14, p=0.049): significantly more; HDRS-17 remitters [6, 10]: 7.1%"
Fc1ccc([C@@H]2CCNC[C@H]2COc2ccc3c(c2)OCO3)cc1 [paroxetine],no significant differences,no differences,higher scores,no effect,no significant difference,no difference,no effect of apoE genotype,significantly lower,less improvement,higher scores,higher scores,none,none,23.3,slower onset of anti-depressant action,particularly slow to respond,"plasma drug concentrations, ε4 carriers vs non-ε4 carriers ([1]; Caucasian subjects): no differences; plasma drug concentrations, ε4 carriers vs non-ε4 carriers ([1]; full cohort): no differences; number of patients who discontinued due to adverse events, ε4 carriers vs noncarriers ([2]; Caucasian subjects): no significant differences; effect of the ε4 genotype on the number of patients showing a 50% reduction in GDS ([4]; day 28, Caucasian patients): no significant effect; MMSE score, ε4 carriers compared with those without ε4 ([5]; Caucasian subjects, trend, p=0.05): lower MMSE score; patients showing a 50% decrease in HDRS-17 score over baseline (HDRS-17 50% responders) ([6]; day 14, patients with an apoE ε4 allele): none"
